In patent publication US20080025917A1, “Methods for modulating formation and progression of cellulite” (priority 2006, published 2008):

Columns and labels:
[1] = test system: human primary dermal fibroblasts; assay: Attachment and spreading of primary dermal fibroblasts on a Type I collagen matrix; format: cell-based
Method: Assay of HF effects on contractile behavior of dermal fibroblasts. Previous studies have established that HF can modulate fibrosis in vivo, and regulate ECM production by cells in vitro. The studies described herein provide a simple assay to test the effects of HF and its putative mediators on the behavior of cells likely to provide the basis for the structural features of cellulite—dermal fibroblasts and myofibroblasts. When human primary dermal fibroblasts are cultured in a matrix of Type I collagen, mimicking the interstitial matrix of the dermis and hypodermis, they attach to the substratum and spread, exerting contractile force on the surrounding interstitial matrix (FIG. 2A).

TIF1β = molecular target: T1, TIF1β (Mus musculus, UniProt Q62318); assay: HF-affinity resin binding / free-compound competition for TIF1β
T1 construct: endogenous in cells; host or cells: SV-MES cells (lysate)
From the text: The molecular mechanisms underlying the regulation of ECM by HF currently are not known. […] These proteins, TIF1β and Ruvbl2, are both transcriptional regulatory proteins. TIF1β is known to interact with transcription factors that regulate Type I collagen expression, providing the first molecular connection between HF and the regulation of an ECM gene. A brief description and data detailing the isolation and identification of HF binding proteins are provided below. […] This band was identified by tandem mass spectrometry as TIF1β. These HF binding proteins were isolated and identified by tandem mass spectrometry. Using this approach, the transcriptional co-repressor TIF1β (FIG. 4) was initially identified as an HF binding protein. A cDNA encoding TIF1β was also identified and used to confirm that TIF1β binds specifically to HF (FIG. 5). Cloned, tagged TIF1β was transfected into SV-MES cells and precipitated with HF-resin.

RuvBl2 = molecular target: T2, RuvBl2 (Mus musculus, UniProt Q9WTM5); assay: HF affinity purification / tandem mass spectrometry, RuvBl2; format: binding
T2 construct: endogenous in cells; host or cells: SV-MES cell lysate (inferred from the same approach described)
From the text: TIF1β is a member of a family of transcriptional co-repressors (Chang, et al., Mol Cell Biol, vol. 18: 5880-87 (1998); Hsu, et al. Embo J., vol. 20: 2273-85 (2001); Le Douarin, et al. J Steroid Biochem Mol Biol 65, 43-50 (1998)). TIF1β interacts with a variety of transcription factors, including nuclear receptors, to mediate regulation of chromatin modification (Chang, et al., Mol Cell Biol, vol. 18: 5880-87 (1998); Hsu, et al. Embo J., vol. 20: 2273-85 (2001); Nomura, et al. J Biol Chem 279, 16715-26 (2004)). TIF1β interacts with a number of transcription factors known to regulate the synthesis of Type I collagen, providing a direct link between HF, TIF1β and the transcription of extracellular matrix genes. […] Ruvbl2, also known as Reptin, ECP51, Tip48, and Tip49b, is, like TIF1β, known to function in transcriptional regulation and chromatin re-modeling (Kanemaki, et al. J Biol Chem 274, 22437-44 (1999)). The identification of halofuginone's intracellular effectors, and the binding sites for halofuginone in those effectors, provides additional approaches to targeting the deposition of sub-dermal ECM. New classes of small molecules can be designed to target intracellular effectors such as TIF1β and RuvBl2, broadening the range of potential therapeutic agents for the treatment of cellulite.

[2] = test system: NMuMg murine epithelial cells; assay: TGFβ-induced myofibroblast formation, Western blot for smooth muscle actin; format: cell-based; details: 5 ng/ml TGFβ1, 72 hours, increasing doses
Method: NMuMg murine epithelial cells were induced to undergo transition to myofibroblasts by stimulation with 5 ng/ml TGFβ1. After 72 hours, myofibroblast differentiation was assessed by Western blot for Smooth muscle actin (SMA), a myofibroblast contractile protein. […] Thus, HF inhibited myofibroblasts formation in response to TGFβ.

[3] = test system: Primary human dermal fibroblasts; format: cell-based; details: 100 nM, 5 ng/ml TGFβ1
Method: Primary human dermal fibroblasts were seeded in a matrix of Type I collagen with 5 ng/ml TGFβ1 in the presence or absence of 100 nM HF. FIG. 7 depicts the effect of the presence and absence of HF on the behavior of TGFβ-treated dermal fibroblasts.

[4] = test system: human primary dermal fibroblasts; assay: Fibroblast-driven collagen disc contraction; format: cell-based; details: 100 nM, 72 hours
Method: Human primary dermal fibroblasts were seeded in a matrix of Type I collagen in the presence or absence of 5 ng/ml TGFβ or 100 nM HF. Collagen discs were released from attachment to the culture dish and allowed to undergo fibroblast-driven contraction for 72 hours. The area of the discs at time zero was 200 units.

[5] = in vitro; cited from earlier work
[6] = cited from earlier work

T1 sequence (Q62318 whole entry): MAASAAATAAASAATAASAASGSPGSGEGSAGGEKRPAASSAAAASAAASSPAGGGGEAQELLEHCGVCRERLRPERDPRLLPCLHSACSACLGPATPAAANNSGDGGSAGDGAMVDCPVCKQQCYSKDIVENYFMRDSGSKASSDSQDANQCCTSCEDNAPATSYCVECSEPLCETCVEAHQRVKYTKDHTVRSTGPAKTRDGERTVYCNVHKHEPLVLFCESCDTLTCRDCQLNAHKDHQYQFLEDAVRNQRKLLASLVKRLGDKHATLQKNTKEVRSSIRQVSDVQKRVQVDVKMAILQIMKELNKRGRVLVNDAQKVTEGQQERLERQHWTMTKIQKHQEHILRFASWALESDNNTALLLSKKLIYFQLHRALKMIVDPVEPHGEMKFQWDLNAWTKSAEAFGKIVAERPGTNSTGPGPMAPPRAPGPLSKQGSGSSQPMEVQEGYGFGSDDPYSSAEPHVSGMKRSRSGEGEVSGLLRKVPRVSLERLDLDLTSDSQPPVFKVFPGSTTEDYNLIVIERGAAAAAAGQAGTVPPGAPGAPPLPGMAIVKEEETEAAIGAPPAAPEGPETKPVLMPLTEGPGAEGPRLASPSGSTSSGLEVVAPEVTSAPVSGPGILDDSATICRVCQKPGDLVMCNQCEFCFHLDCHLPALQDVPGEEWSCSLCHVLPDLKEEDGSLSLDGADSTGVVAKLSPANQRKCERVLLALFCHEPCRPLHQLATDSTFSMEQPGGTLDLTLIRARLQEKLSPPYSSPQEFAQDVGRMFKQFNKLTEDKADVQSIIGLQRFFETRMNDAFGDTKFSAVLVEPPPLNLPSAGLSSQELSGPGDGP
T2 sequence (Q9WTM5 2-463 limits assumed): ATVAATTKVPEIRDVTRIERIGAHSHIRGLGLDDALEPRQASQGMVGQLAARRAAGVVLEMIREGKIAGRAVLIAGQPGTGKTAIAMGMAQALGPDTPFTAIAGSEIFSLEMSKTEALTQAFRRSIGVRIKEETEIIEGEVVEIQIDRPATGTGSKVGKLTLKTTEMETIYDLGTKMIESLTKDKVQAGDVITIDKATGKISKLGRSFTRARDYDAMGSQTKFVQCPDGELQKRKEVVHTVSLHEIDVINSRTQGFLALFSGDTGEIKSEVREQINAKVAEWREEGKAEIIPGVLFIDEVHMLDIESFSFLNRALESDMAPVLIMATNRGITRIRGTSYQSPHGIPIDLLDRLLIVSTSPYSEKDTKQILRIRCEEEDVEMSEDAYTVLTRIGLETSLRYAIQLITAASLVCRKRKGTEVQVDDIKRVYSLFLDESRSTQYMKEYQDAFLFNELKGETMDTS

| SMILES | ability of fibroblasts to attach and spread on collagen matrix ([1]; 200 nM, 24 hrs) | ability of fibroblasts to attach and spread on collagen matrix ([1]; as little as 30 nM) | competition by free compound for binding of TIF1β band to HF affinity resin (TIF1β; SV-MES cell lysates, excess free compound) | blocking of tagged TIF1β interaction with immobilized HF by pre-incubation (TIF1β; cloned, tagged TIF1β transfected into SV-MES cells, precipitated with HF-resin) | binding of RuvBl2 to HF (RuvBl2) | smooth muscle actin (SMA) induction [2] | fibroblast extensions and attachments to the matrix [3] | contractile activity of myofibroblasts in a collagen matrix (disc area) [4] | concentration at which it acts as an inhibitor of fibrosis [5] [nM] | excess dermal ECM deposition ([6]; animal models of wound healing and fibrotic disease, intra-peritoneally, in food or applied locally) | toxicity in vivo ([6]; in vivo) |
| --- | --- | --- | --- | --- | --- | --- | --- | --- | --- | --- | --- |
| CC(C)(C)OC(=O)N1CCC[C@H](O)[C@H]1CC(=O)Cn1cnc2cc(Br)c(Cl)cc2c1=O [MAZ1310] | inactive | – | – | – | – | – | – | – | – | – | – |
| O=C(CC1NCCCC1O)Cn1cnc2cc(Br)c(Cl)cc2c1=O (stereo not drawn) [HF, 7-bromo-6-chloro-3-[3-(3-hydroxy-2-piperidinyl)-2-oxopropyl]-4(3H)-quinazolinone] | completely fail to attach and spread | Identical results | specifically competed | blocked TIF1β interaction with immobilized HF | second HF binding protein | eliminated SMA induction | no extensions or attachments to the matrix or to one another | inhibited the contractile activity | 20 to 200 | reduces excess dermal ECM deposition | low-toxicity |
